Laboratory results reported in ChEMBL document CHEMBL5244223, “l,8-Naphthalimide based DNA intercalators and anticancer agents. A systematic review from 2007 to 2017” (Eur J Med Chem, 2018).

Key:
[1] = tested on: Staphylococcus aureus; assay: Antibacterial activity against Staphylococcus aureus MTCC 96 assessed as zone of inhibition at 50 ug/ml by well diffusion assay; format: functional; conditions: read-out: IZ
[2] = tested on: Staphylococcus epidermidis; assay: Antibacterial activity against Staphylococcus epidermidis MTCC 435 assessed as zone of inhibition at 50 ug/ml by well diffusion assay; format: functional; conditions: read-out: IZ
[3] = tested on: Pseudomonas aeruginosa; assay: Antibacterial activity against Pseudomonas aeruginosa MTCC 741 assessed as zone of inhibition at 50 ug/ml by well diffusion assay; format: functional; conditions: read-out: IZ
[4] = tested on: Escherichia coli; assay: Antibacterial activity against Escherichia coli MTCC 443 assessed as zone of inhibition at 50 ug/ml by well diffusion assay; format: functional; conditions: read-out: IZ
[5] = tested on: Aspergillus niger; assay: Antifungal activity against Aspergillus niger MTCC 282 assessed as zone of inhibition at 100 ug/ml by well diffusion assay; format: functional; conditions: read-out: IZ
[6] = tested on: Candida albicans; assay: Antifungal activity against Candida albicans MTCC 227 assessed as zone of inhibition at 100 ug/ml by well diffusion assay; format: functional; conditions: read-out: IZ
[7] = tested on: Rhizopus arrhizus; assay: Antifungal activity against Rhizopus oryzae MTCC 262 assessed as zone of inhibition at 100 ug/ml by well diffusion assay; format: functional; conditions: read-out: IZ
[8] = tested on: Saccharomyces cerevisiae; assay: Antifungal activity against Saccharomyces cerevisiae MTCC 36 assessed as zone of inhibition at 100 ug/ml by well diffusion assay; format: functional; conditions: read-out: IZ
[9] = tested on: SMMC-7721; assay: Antiproliferative activity against human SMMC-7721 cells assessed as inhibition of cell proliferation incubated for 48 hrs by MTT assay; format: functional, cell-based; conditions: SMMC-7721, 48 h
[10] = tested on: MCF7; assay: Antiproliferative activity against human MCF7 cells assessed as inhibition of cell proliferation incubated for 48 hrs by MTT assay; format: functional, cell-based; conditions: MCF7, 48 h
[11] = tested on: HeLa; assay: Antiproliferative activity against human HeLa cells assessed as inhibition of cell proliferation incubated for 48 hrs by MTT assay; format: functional, cell-based
[12] = tested on: Bel-7402; assay: Cytotoxicity against human Bel-7402 cells assessed as inhibition of cell growth incubated for 48 hrs by MTT assay; format: functional, cell-based; conditions: Bel-7402, 48 h
[13] = Cytotoxicity against human QSG7701 cells assessed as inhibition of cell growth incubated for 48 hrs by MTT assay; format: toxicity, cell-based
[14] = tested on: HepG2; assay: Antiproliferative activity against human HepG2 cells assessed as inhibition of cell proliferation incubated for 48 hrs by MTT assay; format: functional, cell-based; conditions: HepG2, 48 h
[15] = tested on: HCT-116; assay: Antiproliferative activity against human HCT-116 cells assessed as inhibition of cell proliferation incubated for 48 hrs by MTT assay; format: functional, cell-based; conditions: HCT-116, 48 h
[16] = tested on: K562; assay: Antiproliferative activity against human K562 cells assessed as inhibition of cell proliferation incubated for 48 hrs by MTT assay; format: functional, cell-based; conditions: K562, 48 h
[17] = tested on: MDA-MB-231; assay: Antiproliferative activity against human MDA-MB-231 cells assessed as inhibition of cell proliferation incubated for 48 hrs by MTT assay; format: functional, cell-based; conditions: MDA-MB-231, 48 h
[18] = Antiproliferative activity against human QSG7701 cells assessed as inhibition of cell proliferation incubated for 48 hrs by MTT assay; format: toxicity, cell-based

| SMILES | zone of inhibition at 50 µg/mL [1] [mm] | zone of inhibition at 50 µg/mL [2] [mm] | zone of inhibition at 50 µg/mL [3] [mm] | zone of inhibition at 50 µg/mL [4] [mm] | zone of inhibition at 100 µg/mL [5] [mm] | zone of inhibition at 100 µg/mL [6] [mm] | zone of inhibition at 100 µg/mL [7] [mm] | zone of inhibition at 100 µg/mL [8] [mm] | IC50 [12] [µM] | IC50 at 48 h [13] [µM] | other results |
| --- | --- | --- | --- | --- | --- | --- | --- | --- | --- | --- | --- |
| CCC1=C(C(=O)OC)C(CN2C(=O)c3cccc4cccc(c34)C2=O)NC(=S)N1 (stereo not drawn) | 15 | 15 | 12 | 12 | 12 | 12 | 12 | 12 |  |  |  |
| CN[C@@H]1[C@H](O[C@H]2[C@H](O[C@H]3[C@H](O)[C@@H](O)[C@H](N=C(N)N)[C@@H](O)[C@@H]3N=C(N)N)O[C@@H](C)[C@]2(O)C=O)O[C@@H](CO)[C@H](O)[C@H]1O [STREPTOMYCIN] | 21 | 23 | 24 | 29 |  |  |  |  |  |  |  |
| CCC1=C(C(=O)OC(F)(F)F)C(CN2C(=O)c3cccc4cccc(c34)C2=O)NC(=S)N1 (stereo not drawn) | 15 | 15 | 12 | 12 | 12 | 12 | 12 | 12 |  |  |  |
| CN(C)CCN1C(=O)c2cccc3cc(-n4cc(-c5ccccc5)nn4)cc(c23)C1=O |  |  |  |  |  |  |  |  |  |  | IC50 [9]: 0.3 µM; IC50 [10]: 0.3 µM; IC50 [11]: 0.3 µM |
| NCCCNCCCNCCCN1C(=O)c2cccc3c(Cl)ccc(c23)C1=O |  |  |  |  |  |  |  |  | 1.06 | > 50 |  |
| O=C1c2cccc3cc(-n4cc(-c5ccccc5)nn4)cc(c23)C(=O)N1CCO |  |  |  |  |  |  |  |  |  |  | IC50 [9]: 0.3 µM; IC50 [10]: 0.3 µM; IC50 [11]: 0.3 µM |
| CN(C)CCN1C(=O)c2cccc3cc(NC(=O)NCCCNCCCCN)cc(c23)C1=O |  |  |  |  |  |  |  |  |  |  | IC50 [14]: > 50 µM; IC50 [9]: > 50 µM; IC50 [15]: > 50 µM; IC50 [16]: > 50 µM; IC50 [17]: > 50 µM; IC50 at 48 h [18]: > 50 µM |
| CCC1=C(C(=O)Oc2ccccc2)C(CN2C(=O)c3cccc4cccc(c34)C2=O)NC(=S)N1 (stereo not drawn) | 15 | 15 | 12 | 12 | 12 | 12 | 12 | 12 |  |  |  |
| NCCCCNCCCCNCCCCN1C(=O)c2cccc3c(Cl)ccc(c23)C1=O |  |  |  |  |  |  |  |  | 1.06 | > 50 |  |
| COC(=O)C1=C(C)NC(=S)NC1CN1C(=O)c2cccc3cccc(c23)C1=O (stereo not drawn) | 15 | 15 | 12 | 12 | 12 | 12 | 12 | 12 |  |  |  |
| NCCCNCCCCNCCCN1C(=O)c2cccc3c(Br)ccc(c23)C1=O |  |  |  |  |  |  |  |  | 1.06 | > 50 |  |
| CCOC(=O)C1=C(CC)NC(=O)NC1CN1C(=O)c2cccc3cccc(c23)C1=O (stereo not drawn) | 15 | 15 | 12 | 12 | 12 | 12 | 12 | 12 |  |  |  |
| CN(C)CCNCC(=O)Nc1cc2c3c(cccc3c1)C(=O)N(CCN(C)C)C2=O |  |  |  |  |  |  |  |  |  |  | IC50 [14]: 6.42 µM; IC50 [9]: 6.42 µM; IC50 [15]: 6.42 µM; IC50 [16]: 6.42 µM; IC50 [17]: 6.42 µM; IC50 at 48 h [18]: 6.42 µM |
| NCCCNCCCCNCCCN1C(=O)c2cccc3cc([N+](=O)[O-])cc(c23)C1=O |  |  |  |  |  |  |  |  | 1.06 | > 50 |  |
| CN(C)CCN1C(=O)c2cccc3cc(NC(=O)NCCCNCCCNCCCCN)cc(c23)C1=O |  |  |  |  |  |  |  |  |  |  | IC50 [14]: > 50 µM; IC50 [9]: > 50 µM; IC50 [15]: > 50 µM; IC50 [16]: > 50 µM; IC50 [17]: > 50 µM; IC50 at 48 h [18]: > 50 µM |
| NCCCNCCCCNCCCN1C(=O)c2cccc3c(Cl)ccc(c23)C1=O |  |  |  |  |  |  |  |  | 1.06 | > 50 |  |
| NCCCNCCCCNCCCN1C(=O)c2cccc3cc(N)cc(c23)C1=O |  |  |  |  |  |  |  |  | 1.06 | > 50 |  |
| CCOC(=O)C1=C(CC)NC(=S)NC1CN1C(=O)c2cccc3cccc(c23)C1=O (stereo not drawn) | 15 | 15 | 12 | 12 | 12 | 12 | 12 | 12 |  |  |  |
